Data as given in ChEMBL document CHEMBL3861978, “Dinoflagellate-Related Amphidinolides from the Brazilian Octocoral Stragulum bicolor” (J Nat Prod, 2016).

Test: Cytotoxicity against human HCT116 cells measured after 72 hrs by MTT assay
Assay type: functional, cell-based
Details: HCT-116, 72 h

C=C1/C=C(\C)[C@@H](C)[C@@H](O)CC(=O)[C@@H](C)CC(=O)C[C@H]2CC[C@@H](O2)[C@@H](/C=C/C=C(\C)[C@@H](O)C(=C)CCC)OC(=O)C[C@@H]2O[C@H](C[C@H]2C)[C@H](O)C1 showed an IC50 of 10.3 µM.

With C=C1/C=C(\C)[C@](C)(O)C[C@H](O)CC(=O)[C@H](O)[C@@H](O)[C@H](C)C[C@H](C)OC(=O)/C(C)=C/CC/C=C/C(O)C(O)C[C@H](C)C1 (some centres not stated) the IC50 was 9.8 µM.
